Measurements as given in US8871252B2, “pH-responsive liposome” (Nanotheta Co, Ltd., priority 2009, dated 2014).

Columns and labels:
[1] = Release behavior of citric acid from liposomes in a weakly basic environment (pH meter); assay type: physicochemical; conditions: after pH of the mixture changed to 7.5 to 8.5 with sodium hydroxide
Method: The release behavior of citric acid from liposomes was studied in a weakly basic environment. First, to an aqueous liquid of citric acid having liposomes dispersed therein ([lipid]=250 μM, 4 mL) or an aqueous solution of citric acid (30 mM, pH 2.2, 4 mL), 2M aqueous sodium hydroxide (170 μL) was added to adjust the pH of the mixture to 6.5. Then, 300 mM aqueous sodium hydroxide (60 μL) was added to change the pH of the mixture to 7.5 to 8.5. The subsequent pH change behavior was monitored over time with a pH meter.

[2] = pH change behavior of citric acid-loaded liposomes added to aqueous sodium hydroxide; assay type: physicochemical; conditions: upon addition to 4 mL of 300 μM aqueous sodium hydroxide (pH 10.5)
Method: Each lipid mixture (20 mg) was hydrated in 20 mM citric acid (pH 2.2), and the dispersion was subjected to extrusion (final pore size: 0.22 μm) to prepare liposomes having a particle size of 200 to 300 nm. When required, pH change behavior was measured with a pH meter immediately after addition of the liposome dispersion ([lipid]=55 mg/mL, 10 μL) or citric acid (20 mM, 10 μL) to 4 mL of 300 μM aqueous sodium hydroxide (pH 10.5).

nearly constant pH reached [1]: ~7
pH reached (sudden decrease) [2]: 7.0
SMILES: O=C(O)CC(O)(CC(=O)O)C(=O)O [citric acid]
